Laboratory results: ChEMBL document CHEMBL4619734, “Molecule Property Analyses of Active Compounds for Mycobacterium tuberculosis” (J Med Chem, 2020)
≈ marks a conversion by molar mass, not a printed value.

How the values were obtained:
[1] = tested on: Mycobacterium tuberculosis; test: Antimycobacterial activity against Mycobacterium tuberculosis H37Rv expressing LeuRS; assay type: functional
[2] = Inhibition of human cytoplasmic LeuRS
Leucine--tRNA ligase = molecular target: T1, Leucine--tRNA ligase (Mycobacterium tuberculosis (strain ATCC 25618 / H37Rv), UniProt P9WFV1); test: Inhibition of Mycobacterium tuberculosis LeuRS expressed in Escherichia coli Rosetta (DE3) cells
T1 sequence (P9WFV1 whole entry): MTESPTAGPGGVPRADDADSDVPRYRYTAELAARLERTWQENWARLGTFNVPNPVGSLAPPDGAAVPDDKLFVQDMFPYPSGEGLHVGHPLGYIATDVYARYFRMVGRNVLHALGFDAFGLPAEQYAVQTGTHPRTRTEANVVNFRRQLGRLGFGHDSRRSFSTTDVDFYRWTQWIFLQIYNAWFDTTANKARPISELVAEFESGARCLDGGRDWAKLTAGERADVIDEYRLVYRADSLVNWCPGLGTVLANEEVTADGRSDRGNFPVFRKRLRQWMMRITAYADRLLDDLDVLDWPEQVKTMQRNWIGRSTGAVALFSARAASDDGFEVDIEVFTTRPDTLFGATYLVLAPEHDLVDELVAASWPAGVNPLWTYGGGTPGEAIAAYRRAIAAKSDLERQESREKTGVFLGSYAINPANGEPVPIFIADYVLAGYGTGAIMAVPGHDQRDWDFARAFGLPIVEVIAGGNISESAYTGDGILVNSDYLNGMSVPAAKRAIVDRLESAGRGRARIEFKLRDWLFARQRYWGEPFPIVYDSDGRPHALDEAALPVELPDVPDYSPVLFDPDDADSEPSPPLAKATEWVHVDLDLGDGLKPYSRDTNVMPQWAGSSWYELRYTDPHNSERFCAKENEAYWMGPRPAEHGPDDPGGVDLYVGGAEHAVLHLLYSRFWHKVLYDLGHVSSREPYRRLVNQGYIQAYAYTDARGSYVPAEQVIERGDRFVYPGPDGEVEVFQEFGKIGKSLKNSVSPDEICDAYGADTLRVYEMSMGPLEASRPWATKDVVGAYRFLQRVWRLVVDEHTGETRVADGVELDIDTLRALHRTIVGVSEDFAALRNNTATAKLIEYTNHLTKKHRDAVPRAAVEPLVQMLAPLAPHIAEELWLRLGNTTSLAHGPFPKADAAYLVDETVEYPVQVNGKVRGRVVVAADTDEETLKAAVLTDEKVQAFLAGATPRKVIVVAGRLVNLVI

[3] = tested on: Mycobacterium tuberculosis; test: Antimycobacterial activity against Mycobacterium tuberculosis expressing DprE1; assay type: functional
[4] = tested on: Mycobacterium tuberculosis; test: Antimycobacterial activity against Mycobacterium tuberculosis clinical isolates; assay type: functional
[5] = tested on: Mycobacterium tuberculosis; test: Antimycobacterial activity against Mycobacterium tuberculosis; assay type: functional
[6] = tested on: Mycobacterium tuberculosis; test: Antimycobacterial activity against Mycobacterium tuberculosis expressing WecA; assay type: functional
[7] = tested on: Mycobacterium tuberculosis; test: Antimycobacterial activity against Mycobacterium tuberculosis H37Rv ATCC 27294 assessed as reduction in mycolic acids synthesis after 8 hrs in presence of [1, 2-14C]-acetate by TLC analysis; assay type: functional; conditions: H37Rv ATCC 27294, 8 h
[8] = tested on: Mycolicibacterium smegmatis; test: Antimycobacterial activity against Mycobacterium smegmatis; assay type: functional
[9] = tested on: Mycobacterium tuberculosis; test: Antimycobacterial activity against Mycobacterium tuberculosis expressing Rv1258c efflux pump; assay type: functional
[10] = tested on: Mycobacterium tuberculosis; test: Antimycobacterial activity against Mycobacterium tuberculosis H37Ra after 7 to 8 days by MABA assay; assay type: functional
Mycobacterium avium [11] = test: Antimycobacterial activity against Mycobacterium avium 33 expressing MraY; assay type: functional
Mycobacterium avium [12] = test: Antimycobacterial activity against Mycobacterium avium infected in mouse assessed as reduction in mycolic acids synthesis; assay type: functional
[13] = tested on: Mycobacterium tuberculosis; test: Antimycobacterial activity against Mycobacterium tuberculosis H37Rv; assay type: functional

NC[C@H]1OB(O)c2c(OCCO)ccc(Cl)c21
MIC [1]: 0.08 µM (≈ 0.0206 µg/mL) | IC50 [2]: 140 µM | IC50 (Leucine--tRNA ligase): 0.216 µM

C[C@H]1COC2(CCN(c3nc(=O)c4cc(C(F)(F)F)cc([N+](=O)[O-])c4s3)CC2)O1 [BTZ-043]
MIC [3]: 0.001 µg/mL (≈ 0.00232 µM)

CC(=O)NC[C@H]1CN(c2cc(F)c(C3=CCN(C(=O)[C@@H](O)CO)CC3)c(F)c2)C(=O)O1
MIC [4]: 0.25 to 1 µg/mL (≈ 0.569 to 2.28 µM)

Cc1ccc(OCCCCCCn2ccnc2)c(C)c1
MIC [5]: 4.8 µg/mL

C[C@]1(COc2ccc(N3CCC(Oc4ccc(OC(F)(F)F)cc4)CC3)cc2)Cn2cc([N+](=O)[O-])nc2O1 [DELAMANID]
MIC [5]: 0.012 µg/mL

Cc1ccc(C(=O)Nc2ccc([N+](=O)[O-])cc2)s1
MIC [5]: 0.5 µg/mL

CCCCc1ccc(NC(=O)C2=CCN(C)C(C(O[C@@H]3O[C@H](CN)[C@@H](O)[C@H]3O)[C@H]3OC(n4ccc(=O)[nH]c4=O)[C@H](O)[C@@H]3O)C(=O)N2C)cc1 (some centres not stated)
MIC [6]: 1.56 µg/mL (≈ 2.27 µM)

Cc1c(C(=O)C2CC2)[n+]([O-])c2cc(Cl)c(Cl)cc2[n+]1[O-]
MIC [5]: 1.2 µg/mL

NC(=O)c1sc(N2CCOCC2)cc1OCCc1ccc(OC(F)(F)F)cc1
MIC [5]: 0.24 µM

COc1ccc(/C(C)=N/NC(N)=S)cc1
MIC [7]: < 0.05 µg/mL

c1ccc(-c2c[nH]cn2)cc1
MIC [5]: < 10 µM

COc1nc2ccc(Br)cc2cc1[C@@H](c1ccccc1)[C@@](O)(CCN(C)C)c1cccc2ccccc12 [BEDAQUILINE]
MIC99 [8]: 0.03 µg/mL (≈ 0.054 µM)

CN[C@H]1[C@@H](O)[C@@H](NC)CC2O[C@@H]3O[C@H](C)C[C@@H](NC(=O)Cc4ccc(O)cn4)[C@]3(O)C[C@@H]21 (some centres not stated)
MIC [9]: 1.6 µg/mL (≈ 3.55 µM)

NC(=S)N/N=C/c1cccnc1 [NICOTHIAZONE]
MIC [7]: 3.1 µg/mL

CCCCCCCCCCNC(CC(=O)OCC)[C@H]1O[C@@H]2OC(C)(C)O[C@@H]2C1OC (some centres not stated)
MIC [10]: 3.12 µg/mL (≈ 7.26 µM)

CO[C@H]1[C@@H](O)[C@H](n2ccc(=O)[nH]c2=O)O[C@@H]1[C@@H](O[C@H]1OC(C(=O)NC2CCC[C@@H](C)NC2=O)=C[C@H](O)[C@@H]1O)C(N)=O (some centres not stated)
MIC (Mycobacterium avium [11]): 1 µg/mL (≈ 1.71 µM)

CC(=O)Nc1ccc(/C=N/NC(N)=S)cc1 [AMITHIOZONE]
MIC (Mycobacterium avium [12]): 0.1 µg/mL (≈ 0.423 µM)

Cc1nn2c(O)cc(-c3ncccn3)nc2c1-c1ccc(Cl)cc1
MIC [5]: 1.1 µg/mL

CCCCCCCCc1nc2cc(C)c(C)cc2[nH]1
MIC90 [5]: 0.75 µM

O=[N+]([O-])c1cn2c(n1)OC[C@@H](OCc1ccc(OC(F)(F)F)cc1)C2 [PRETOMANID]
MIC90 [5]: 0.039 µg/mL

O=[N+]([O-])c1ccc(/C=N/Nc2nc(Nc3ccccc3)nc(N3CCOCC3)n2)o1
MIC [5]: 0.63 µM

CC(=O)NC[C@H]1CN(c2ccc(N3CCSCC3)c(F)c2)C(=O)O1 [SUTEZOLID]
MIC [5]: 0.03 to 0.5 µg/mL

CN[C@H]1[C@@H](O)[C@@H](NC)CC2O[C@@H]3O[C@H](C)C[C@@H](NC(=O)Cc4ccc(Cl)cn4)[C@]3(O)C[C@@H]21 (some centres not stated)
MIC [9]: 0.8 µg/mL (≈ 1.71 µM)

O=[N+]([O-])c1ccc(/C=N/Nc2nc(Nc3ccccc3)nc(Nc3ccccc3)n2)o1
MIC [5]: 0.078 µM

CCCCS(=O)(=O)Nc1ccc2cnn(C)c2c1
MIC [13]: 0.8 µM (≈ 0.214 µg/mL)
